This passage reports TGI and GI50 results from PubChem BioAssay (NCI).

Where “and” joins values, the source holds several entries; their conditions need not be identical. Equal values may be shown once.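 Growth conditions: 96-well plates. Treatment: test compound, 48 hours, 5 concentrations. Analysis: linear interpolation between bracketing concentrations; unreached endpoints set to highest concentration. GI50 is the concentration that inhibits growth by half. TGI denotes the concentration required for complete inhibition of growth.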 *1 amine or outer side, *2 acyl side, *3 side chain or, on linkers, in order; H or OH if unused. Where a SMILES comes first, the peptide text is derived from it. [ ]: non-standard residue; d: D form. The star is where a group is joined. X31 = CC(=O)N(C)SCC(N[*:1])C(=O)[*:2]; Fmoc = O=C(OCC1c2ccccc2-c2ccccc21)*; For = O=C*

Among the test systems are SK-OV-3 ovarian; OVCAR-3 ovarian; RPMI-8226 leukemia; SK-MEL-5 melanoma; A498 renal; HT29 colon; UACC-257 melanoma; SK-MEL-2 melanoma; HCT-15 colon; MDA-N; UO-31 renal; SF-268 CNS; NCI/ADR-RES ovarian; SN12C renal; RXF 393 renal; HL-60(TB) leukemia.
Experiment in all cases: NCI tumour cell line growth inhibition, 48 h

As to `Nc1cc(N)c(N=Nc2cccc3c(S(=O)(=O)O)cccc23)cc1N=Nc1cc([N+](=O)[O-])ccc1O`, the TGI in the assay with SK-OV-3 ovarian is above 100 µM; with OVCAR-3 ovarian, above 100 µM; in the assay with RPMI-8226 leukemia it was above 100 µM; with SK-MEL-5 melanoma, 47.2 µM; with A498 renal, above 100 µM; in the assay on HT29 colon it was above 100 µM. Moreover, the TGI is 74.5 µM in the assay with UACC-257 melanoma; above 100 µM in the assay with SK-MEL-2 melanoma; 61 µM in the assay on HCT-15 colon; above 100 µM in the assay with MDA-N; above 100 µM in the assay on UO-31 renal; 54.8 µM in the assay on SF-268 CNS. The TGI is 93.2 µM in the assay with NCI/ADR-RES ovarian, above 100 µM in the assay with SN12C renal and above 100 µM in the assay with RXF 393 renal.

`C#CC(O)Cc1ccc(OC)c2occc12` (centres undefined): the TGI in the assay on SK-OV-3 ovarian, in the assay on OVCAR-3 ovarian, in the assay with RPMI-8226 leukemia, in the assay with SK-MEL-5 melanoma, with A498 renal and with HT29 colon was above 100 µM throughout. The TGI with UACC-257 melanoma, in the assay with SK-MEL-2 melanoma, with HCT-15 colon, with MDA-N, in the assay with UO-31 renal and in the assay on SF-268 CNS was above 100 µM in each case. In addition, the TGI in the assay on NCI/ADR-RES ovarian, in the assay with SN12C renal and with RXF 393 renal was above 100 µM each time.

With `CC(Nc1n[nH]c(=O)c2c1nnn2Cc1ccccc1)c1ccccc1` (centres undefined), the TGI is above 100 µM in the assay with OVCAR-3 ovarian; above 100 µM in the assay on RPMI-8226 leukemia; above 100 µM in the assay with SK-MEL-5 melanoma; 24.7 µM in the assay with HT29 colon; above 100 µM in the assay with UACC-257 melanoma; above 100 µM with SK-MEL-2 melanoma. The TGI in the assay on HL-60(TB) leukemia, in the assay with HCT-15 colon, with MDA-N, with UO-31 renal, with NCI/ADR-RES ovarian and in the assay with SN12C renal was above 100 µM each time. Also, the GI50 was > 100 µM and 41.5 µM in the assay with SK-MEL-2 melanoma; 37.4 µM and > 100 µM in the assay with HL-60(TB) leukemia; > 100 µM and 32.3 µM with MDA-N; > 100 µM and 23.1 µM in the assay with UO-31 renal.

For `N#Cc1c(N2CCOCC2)ncn(-c2ccc(Cl)cc2)c1=O`, the TGI in the assay on SK-OV-3 ovarian, in the assay with OVCAR-3 ovarian, in the assay with RPMI-8226 leukemia, in the assay on SK-MEL-5 melanoma, in the assay with A498 renal and with UACC-257 melanoma was above 100 µM throughout. The TGI in the assay with SK-MEL-2 melanoma, in the assay with HL-60(TB) leukemia, with HCT-15 colon, in the assay with MDA-N, in the assay on UO-31 renal and with NCI/ADR-RES ovarian was above 100 µM each time. Also, the TGI in the assay with SN12C renal was above 100 µM.

For `CC(=O)N(C)SCC(NC(=O)C(Cc1ccccc1)NC(=O)OCC1c2ccccc2-c2ccccc21)C(=O)NC(Cc1ccccc1)C(=O)NC(Cc1cn(C=O)c2ccccc12)C(=O)NC(CCCCNC(=O)OCC1c2ccccc2-c2ccccc21)C(=O)NC(C(=O)NC(CSN(C)C(C)=O)C(=O)NC(C(N)=O)C(C)O)C(C)O` (centres undefined) (Fmoc-F[X31]FW(For)K(Fmoc)T[X31]T-NH2; configuration not given here), the TGI with SK-OV-3 ovarian, in the assay on OVCAR-3 ovarian, with RPMI-8226 leukemia, in the assay on SK-MEL-5 melanoma, in the assay with HT29 colon and in the assay with UACC-257 melanoma was above 100 µM each time. Moreover, the TGI is above 100 µM with SK-MEL-2 melanoma; above 100 µM in the assay with HL-60(TB) leukemia; above 100 µM with HCT-15 colon; above 100 µM in the assay on MDA-N; 70.2 µM in the assay on UO-31 renal; above 100 µM with SF-268 CNS. For the same compound, the results for the TGI with NCI/ADR-RES ovarian, with SN12C renal and with RXF 393 renal were above 100 µM, above 100 µM and 72.3 µM, respectively.

As to `CCSC12CC3c4cccc5c4C(CN5C(=O)c4ccccc4)CC3(O1)N(C)C2=O` (centres undefined), the TGI is above 100 µM in the assay on SK-OV-3 ovarian; above 100 µM in the assay with OVCAR-3 ovarian; 28.9 µM in the assay with SK-MEL-5 melanoma; above 100 µM with A498 renal; above 100 µM with HT29 colon; above 100 µM with UACC-257 melanoma. Further, the TGI is 89.5 µM in the assay with SK-MEL-2 melanoma; 55.7 µM with HL-60(TB) leukemia; above 100 µM in the assay on HCT-15 colon; 81.6 µM in the assay with MDA-N; above 100 µM with UO-31 renal; above 100 µM in the assay with SF-268 CNS. Also, the TGI with NCI/ADR-RES ovarian was above 100 µM; with SN12C renal it was 62.9 µM; in the assay on RXF 393 renal, above 100 µM.

Take `Cc1ccc(-n2cc(-c3ccc(Cl)cc3)c3c2N=CN2NC(c4cccs4)=NC32)cc1` (centres undefined): the TGI with SK-OV-3 ovarian was 37.3 µM; in the assay on OVCAR-3 ovarian it was 35 µM; with SK-MEL-5 melanoma it was above 100 µM; in the assay on A498 renal, 35.9 µM; in the assay on HT29 colon, above 100 µM; in the assay with UACC-257 melanoma, above 100 µM. Further, the TGI in the assay with SK-MEL-2 melanoma was 33 µM; with HL-60(TB) leukemia, 45.1 µM; in the assay on HCT-15 colon, above 100 µM; in the assay on MDA-N, above 100 µM; in the assay on UO-31 renal it was 27.7 µM; with SF-268 CNS, 69.5 µM. Besides, the TGI with NCI/ADR-RES ovarian is 40.9 µM; with SN12C renal, 29 µM; with RXF 393 renal it was 31.4 µM.

With `C=CCC1C2CCC(O[Si](C(C)C)(C(C)C)C(C)C)(C(C(=O)OC)C2)C1O` (centres undefined), the TGI in the assay with SK-OV-3 ovarian, with OVCAR-3 ovarian, in the assay with RPMI-8226 leukemia, with SK-MEL-5 melanoma, in the assay with A498 renal and in the assay with HT29 colon was above 100 µM in each case. The TGI is above 100 µM with UACC-257 melanoma; above 100 µM in the assay on SK-MEL-2 melanoma; 36.7 µM in the assay with HL-60(TB) leukemia; above 100 µM in the assay on HCT-15 colon; above 100 µM in the assay on MDA-N; above 100 µM in the assay with UO-31 renal. Besides, the TGI in the assay on SF-268 CNS, with NCI/ADR-RES ovarian and with SN12C renal was above 100 µM each time.

With `COc1ccccc1Cn1[nH]c(=O)c2cc([N+](=O)[O-])ccc21`, the TGI is 83 µM in the assay with OVCAR-3 ovarian; above 100 µM in the assay with RPMI-8226 leukemia; above 100 µM in the assay with SK-MEL-5 melanoma; above 100 µM with A498 renal; above 100 µM in the assay on HT29 colon; above 100 µM in the assay with UACC-257 melanoma. Further, the TGI in the assay with SK-MEL-2 melanoma, in the assay on HL-60(TB) leukemia, with HCT-15 colon, in the assay with MDA-N, in the assay on UO-31 renal and in the assay on SF-268 CNS was above 100 µM each time. Besides, the TGI in the assay with NCI/ADR-RES ovarian was above 100 µM; in the assay on SN12C renal, above 100 µM; in the assay with RXF 393 renal, 82.6 µM.
